Laboratory results as given in the NIST ThermoML archive (doi:10.1021/acs.jced.7b00971).
± gives the expanded uncertainty stated by the source.

Key:
[1] = 101 kPa, Liquid, Capillary tube (Ostwald / Ubbelohde) method
[2] = xn = mol fraction of the nth substance listed; details: 101 kPa, Liquid, Capillary tube (Ostwald / Ubbelohde) method

Cc1ccc(C)cc1 [1,4-dimethylbenzene]
viscosity ([1]; 303.15 K): 0.574 ± 0.017 mPa·s
viscosity ([1]; 308.15 K): 0.542 ± 0.017 mPa·s
viscosity ([1]; 313.15 K): 0.514 ± 0.017 mPa·s
viscosity ([1]; 318.15 K): 0.486 ± 0.017 mPa·s
viscosity ([1]; 323.15 K): 0.461 ± 0.017 mPa·s

Cc1ccc(C)cc1 [1,4-dimethylbenzene] + CO
viscosity ([2]; 303.15 K, x2 = 0): 0.574 ± 0.017 mPa·s
viscosity ([2]; 303.15 K, x2 = 0.1001): 0.559 ± 0.017 mPa·s
viscosity ([2]; 303.15 K, x2 = 0.1998): 0.556 ± 0.017 mPa·s
viscosity ([2]; 303.15 K, x2 = 0.3015): 0.563 ± 0.017 mPa·s
viscosity ([2]; 303.15 K, x2 = 0.4005): 0.567 ± 0.017 mPa·s
viscosity ([2]; 303.15 K, x2 = 0.5): 0.573 ± 0.017 mPa·s
viscosity ([2]; 303.15 K, x2 = 0.5999): 0.576 ± 0.017 mPa·s
viscosity ([2]; 303.15 K, x2 = 0.7005): 0.577 ± 0.017 mPa·s
viscosity ([2]; 303.15 K, x2 = 0.8): 0.568 ± 0.017 mPa·s
viscosity ([2]; 303.15 K, x2 = 0.8984): 0.549 ± 0.017 mPa·s
viscosity ([2]; 308.15 K, x2 = 0): 0.542 ± 0.017 mPa·s
viscosity ([2]; 308.15 K, x2 = 0.1001): 0.527 ± 0.017 mPa·s
viscosity ([2]; 308.15 K, x2 = 0.1998): 0.524 ± 0.017 mPa·s
viscosity ([2]; 308.15 K, x2 = 0.3015): 0.527 ± 0.017 mPa·s
viscosity ([2]; 308.15 K, x2 = 0.4005): 0.529 ± 0.017 mPa·s
viscosity ([2]; 308.15 K, x2 = 0.5): 0.533 ± 0.017 mPa·s
viscosity ([2]; 308.15 K, x2 = 0.5999): 0.536 ± 0.017 mPa·s
viscosity ([2]; 308.15 K, x2 = 0.7005): 0.536 ± 0.017 mPa·s
viscosity ([2]; 308.15 K, x2 = 0.8): 0.529 ± 0.017 mPa·s
viscosity ([2]; 308.15 K, x2 = 0.8984): 0.512 ± 0.017 mPa·s
viscosity ([2]; 313.15 K, x2 = 0): 0.514 ± 0.017 mPa·s
viscosity ([2]; 313.15 K, x2 = 0.1001): 0.498 ± 0.017 mPa·s
viscosity ([2]; 313.15 K, x2 = 0.1998): 0.494 ± 0.017 mPa·s
viscosity ([2]; 313.15 K, x2 = 0.3015): 0.496 ± 0.017 mPa·s
viscosity ([2]; 313.15 K, x2 = 0.4005): 0.498 ± 0.017 mPa·s
viscosity ([2]; 313.15 K, x2 = 0.5): 0.501 ± 0.017 mPa·s
viscosity ([2]; 313.15 K, x2 = 0.5999): 0.504 ± 0.017 mPa·s
viscosity ([2]; 313.15 K, x2 = 0.7005): 0.502 ± 0.017 mPa·s
viscosity ([2]; 313.15 K, x2 = 0.8): 0.495 ± 0.017 mPa·s
viscosity ([2]; 313.15 K, x2 = 0.8984): 0.479 ± 0.017 mPa·s
viscosity ([2]; 318.15 K, x2 = 0): 0.486 ± 0.017 mPa·s
viscosity ([2]; 318.15 K, x2 = 0.1001): 0.469 ± 0.017 mPa·s
viscosity ([2]; 318.15 K, x2 = 0.1998): 0.465 ± 0.017 mPa·s
viscosity ([2]; 318.15 K, x2 = 0.3015): 0.466 ± 0.017 mPa·s
viscosity ([2]; 318.15 K, x2 = 0.4005): 0.467 ± 0.017 mPa·s
viscosity ([2]; 318.15 K, x2 = 0.5): 0.469 ± 0.017 mPa·s
viscosity ([2]; 318.15 K, x2 = 0.5999): 0.469 ± 0.017 mPa·s
viscosity ([2]; 318.15 K, x2 = 0.7005): 0.469 ± 0.017 mPa·s
viscosity ([2]; 318.15 K, x2 = 0.8): 0.462 ± 0.017 mPa·s
viscosity ([2]; 318.15 K, x2 = 0.8984): 0.447 ± 0.017 mPa·s
viscosity ([2]; 323.15 K, x2 = 0): 0.461 ± 0.017 mPa·s
viscosity ([2]; 323.15 K, x2 = 0.1001): 0.445 ± 0.017 mPa·s
viscosity ([2]; 323.15 K, x2 = 0.1998): 0.439 ± 0.017 mPa·s
viscosity ([2]; 323.15 K, x2 = 0.3015): 0.44 ± 0.017 mPa·s
viscosity ([2]; 323.15 K, x2 = 0.4005): 0.44 ± 0.017 mPa·s
viscosity ([2]; 323.15 K, x2 = 0.5): 0.443 ± 0.017 mPa·s
viscosity ([2]; 323.15 K, x2 = 0.5999): 0.443 ± 0.017 mPa·s
viscosity ([2]; 323.15 K, x2 = 0.7005): 0.441 ± 0.017 mPa·s
viscosity ([2]; 323.15 K, x2 = 0.8): 0.434 ± 0.017 mPa·s
viscosity ([2]; 323.15 K, x2 = 0.8984): 0.42 ± 0.017 mPa·s

CO [methanol]
viscosity ([1]; 303.15 K): 0.513 ± 0.017 mPa·s
viscosity ([1]; 308.15 K): 0.48 ± 0.017 mPa·s
viscosity ([1]; 313.15 K): 0.45 ± 0.017 mPa·s
viscosity ([1]; 318.15 K): 0.422 ± 0.017 mPa·s
viscosity ([1]; 323.15 K): 0.397 ± 0.017 mPa·s

CO [methanol] + Cc1ccc(C)cc1
viscosity ([2]; 303.15 K, x1 = 1): 0.513 ± 0.017 mPa·s
viscosity ([2]; 308.15 K, x1 = 1): 0.48 ± 0.017 mPa·s
viscosity ([2]; 313.15 K, x1 = 1): 0.45 ± 0.017 mPa·s
viscosity ([2]; 318.15 K, x1 = 1): 0.422 ± 0.017 mPa·s
viscosity ([2]; 323.15 K, x1 = 1): 0.397 ± 0.017 mPa·s

CO [methanol] + Cc1cccc(C)c1
viscosity ([2]; 303.15 K, x1 = 1): 0.513 ± 0.017 mPa·s
viscosity ([2]; 308.15 K, x1 = 1): 0.48 ± 0.017 mPa·s
viscosity ([2]; 313.15 K, x1 = 1): 0.45 ± 0.017 mPa·s
viscosity ([2]; 318.15 K, x1 = 1): 0.422 ± 0.017 mPa·s
viscosity ([2]; 323.15 K, x1 = 1): 0.397 ± 0.017 mPa·s

CO [methanol] + Cc1ccccc1C
viscosity ([2]; 303.15 K, x1 = 1): 0.513 ± 0.017 mPa·s
viscosity ([2]; 308.15 K, x1 = 1): 0.48 ± 0.017 mPa·s
viscosity ([2]; 313.15 K, x1 = 1): 0.45 ± 0.017 mPa·s
viscosity ([2]; 318.15 K, x1 = 1): 0.422 ± 0.017 mPa·s
viscosity ([2]; 323.15 K, x1 = 1): 0.397 ± 0.017 mPa·s
